Laboratory results from patent US20260053747A1, “RECONSTITUTED HIGH-DENSITY LIPOPROTEIN NANOPARTICLES COMPRISING CHOLESTEROL” (MEPSGEN CO., LTD., priority 2023, published 2026).

Columns and labels:
[1] = system: ABCA1 protein in PDAC cells; conditions: PDAC cells (Raimund O, Life Sci Alliance, 2022); cited from earlier work
hBMECs = assay: Toxicity (cell survival rate) in hBMECs; assay type: cell-based, human; conditions: up to 5 μg/mL, 8 hours
Description: (§1) The toxicity of 24HC-containing rHDL nanoparticles toward hBMECs, iBMECs, pericytes, and normal brain astrocytes, which constitute the BBB until the nanoparticles penetrate the BBB and reach the GBM, was evaluated. hBMECs, iBMECs, pericytes, and astrocytes were seeded into a 96-well cell culture plate. Pericytes were cultured in PM medium, astrocytes were cultured in the same culture medium as described in Example 1, and hBMEC and iBMEC cells were cultured in the same culture medium as described in Example 6. After 24 hours of incubation, the cells were treated with the nanoparticles according to the present invention at concentrations ranging from Oto 5 μg/mL, and the cell survival rate (%) was evaluated after 8 hours of incubation. […] In addition, it was confirmed that the nanoparticles are not toxic to normal brain cells other than GBM.

iBMECs = assay: Toxicity (cell survival rate) in iBMECs; assay type: cell-based, human; conditions: up to 5 μg/mL, 8 hours
Description: as §1

pericytes = assay: Toxicity (cell survival rate) in pericytes; assay type: cell-based; conditions: up to 5 μg/mL, 8 hours
Description: as §1

normal brain astrocytes = assay: Toxicity (cell survival rate) in astrocytes; assay type: cell-based; conditions: up to 5 μg/mL, 8 hours
Description: as §1

[2] = system: LDLR mRNA expression in U87MG cells; assay: qPCR of LDLR mRNA in U87MG; assay type: cell-based; conditions: 1 μg/mL of 24HC, 24 hours
Excerpt: (§2) 24HC is an endogenous LXR agonist and is known to induce the expression of genes responsible for cholesterol efflux, such as ABCA1 and ABCG1, thereby inducing intracellular cholesterol efflux, and to inhibit exogenous cholesterol uptake by downregulating LDLR. Accordingly, we anticipated that treatment of GBM with 24HC-containing rHDL nanoparticles would result in a greater decrease in LDLR expression and an increase in ABCA1 expression due to the action of 24HC, compared to the treatment with 24HC alone. Therefore, U87MG and LN229 cells were treated with 24HC, 24HC-containing rHDL nanoparticles, and rHDL nanoparticles, and the changes in LDLR and ABCA1 mRNA expression were confirmed using qPCR (real-time polymerase chain reaction). U87MG and LN229 cells were seeded at 0.5×10^5 cells/well in a 6-well cell culture plate and cultured for 24 hours under the conditions described in Example 1 above. In qPCR experiments, U87MG cells were treated with 1 μg/mL of 24HC for 24 hours, and LN229 cells were treated with 5 μg/mL of 24HC for 24 hours, and changes in LDLR mRNA were confirmed. […] In the case of rHDL nanoparticles, the amount of apolipoprotein E3 in the 24HC-containing rHDL nanoparticles was quantified using a BCA assay, and the same amount of apolipoprotein E3 corresponding to the 24HC treatment concentration was calculated prior to treatment with rHDL nanoparticles.

[3] = system: LDLR mRNA expression in LN229 cells; assay: qPCR of LDLR mRNA in LN229; assay type: cell-based; conditions: LN229, 5 μg/mL of 24HC, 24 hours
Excerpt: as §2

[4] = system: ABCA1 mRNA expression in U87MG cells; assay: qPCR of ABCA1 mRNA in U87MG; assay type: cell-based; conditions: 1 μg/mL of 24HC, 4 hours
Excerpt: as §2

[5] = system: ABCA1 mRNA expression in LN229 cells; assay: qPCR of ABCA1 mRNA in LN229; assay type: cell-based; conditions: LN229, 5 μg/mL of 24HC, 4 hours
Excerpt: as §2

U87MG cells = assay: GBM cell survival rate in U87MG; assay type: cell-based; conditions: Homo sapiens, U-87 MG, 0-50 μg/mL, 48 hours
Description: (§3) In order to determine whether cholesterol depletion caused by intracellular cholesterol efflux inhibits GBM cell proliferation and induces cell death, U87MG and LN229 cells were treated with rHDL nanoparticles, 24HC, and 24HC-containing rHDL nanoparticles, and the cell survival rate was evaluated. After 24 hours of incubation, the cells were treated with the nanoparticles according to the present invention at concentrations of 0-50 μg/mL, and the cell survival rate (%) was evaluated after 48 hours of incubation.

LN229 cells = assay: GBM cell survival rate in LN229; assay type: cell-based; conditions: Homo sapiens, LN-229, 0-50 μg/mL, 48 hours
Description: as §3

[6] = system: LDLR mRNA expression in GBM #P1 and GBM #P2 cells; assay: qPCR of LDLR mRNA in patient-derived GBM cells; assay type: cell-based; conditions: GBM #P1 and GBM #P2, 2 μg/mL of 24HC, 4 hours
Description: GBM #P1 and GBM #P2 cells were treated with 24HC, 24HC-containing rHDL nanoparticles, and rHDL nanoparticles, and the changes in LDLR and ABCA1 mRNA expression were confirmed using qPCR. GBM #P1 and GBM #P2 cells were seeded at 0.5×10^5 cells/well in a 6-well cell culture plate and were cultured for 24 hours. The cells were cultured under the conditions as described in Example 12 above. GBM #P1 and GBM #P2 cells were treated with 24HC and 24HC-containing rHDL nanoparticles at a concentration of 2 μg/mL of 24HC for 4 hours. In the case of rHDL nanoparticles, the amount of apolipoprotein E3 in the 24HC-containing rHDL nanoparticles was quantified using a BCA assay, and then the same amount of apolipoprotein E3 corresponding to the 24HC treatment concentration was calculated prior to treatment with rHDL nanoparticles.

GBM #P1 cells = assay: Cell viability in patient-derived GBM #P1; assay type: cell-based; conditions: 0-50 μg/mL, 48 hours
Description: (§4) In order to determine whether cholesterol depletion due to intracellular cholesterol efflux inhibits GBM cell proliferation and induces cell death, GBM #P1 and GBM #P2 cells were treated with rHDL nanoparticles, 24HC, and 24HC-containing rHDL nanoparticles, and cell viability was evaluated. After 24 hours of incubation, the cells were treated with 0-50 μg/mL of the nanoparticles, and the cell viability (%) was assessed after 48 hours of incubation.

GBM #P2 cells = assay: Cell viability in patient-derived GBM #P2; assay type: cell-based; conditions: 0-50 μg/mL, 48 hours
Description: as §4

In the case of O=S(=O)(c1ccccc1)N(CC(F)(F)F)c1ccc(C(O)(C(F)(F)F)C(F)(F)F)cc1 [Formulation T0901317], the “Expression of the ABCA1 protein” value [1] is listed as “increased the expression of the ABCA1 protein”.
With CC(C)C(O)CC[C@@H](C)[C@H]1CC[C@H]2[C@@H]3CC=C4C[C@@H](O)CC[C@]4(C)[C@H]3CC[C@]12C (some centres unmarked) [Formulation 24HC, 24-hydroxycholesterol] the “Toxicity in hBMECs” value (hBMECs) was “none of the rHDL nanoparticles, 24HC, or 24HC-containing rHDL nanoparticles exhibited toxicity”, the “Toxicity in iBMECs” value (iBMECs) was “none of the rHDL nanoparticles, 24HC, or 24HC-containing rHDL nanoparticles exhibited toxicity” and the Toxicity in pericytes (pericytes) was “none of the rHDL nanoparticles, 24HC, or 24HC-containing rHDL nanoparticles exhibited toxicity”. For the same compound, the Toxicity in astrocytes (normal brain astrocytes) was “none of the rHDL nanoparticles, 24HC, or 24HC-containing rHDL nanoparticles exhibited toxicity”, the “Level of LDLR mRNA expression compared to the control group” value [2] was “decreased” and the “Level of LDLR mRNA expression compared to the control group” value [3] was “decreased”. For the same compound, the “Level of ABCA1 mRNA expression compared to the control group” value [4] was “increased”, the “Level of ABCA1 mRNA expression compared to the control group” value [5] was “increased” and the IC50 (U87MG cells) was 6.7 µg/mL. The IC50 (LN229 cells) was 12.8 µg/mL, the “Level of LDLR mRNA expression, lower compared to the control group” value [6] was “significantly reduced” and the IC50 (GBM #P1 cells) was 40.2 µg/mL. The IC50 (GBM #P2 cells) was 13.8 µg/mL.
